Assay results: patent publication US8921373B2, “Compounds having TRPV1 antagonistic activity and uses thereof” (Shionogi & Co., Ltd., priority 2010, dated 2014)

Key:
[1] = biological target: T1, human recombinant TRPV1 (Homo sapiens (Human), UniProt Q8NER1); experiment: TRPV1 pH-Based Assay (Protocol 2, Ca2+ response in TRPV1/CHO cells, Fura-2); type: cell-based; conditions: TRPV1/CHO cells, pH 5.0-5.1; read-out: IC50 value by the pH-Based Assay
Procedure, shortened: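 CHO cells stably expressing human TRPV1, Fura-2 loaded, given compound (1% DMSO in 10× stock) before acid challenge to final pH 5.0-5.1 (3.2 or 3.3 mM H2SO4). 340/380 nm ratio recorded at 0.5 Hz; maximal ratio after agonist addition versus 16-point baseline used as response.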

[2] = Measurement of body temperature increase (rectal body temperature); type: in vivo, rat; conditions: Crl/SD rats, oral; for Body temperature increase: 1 mg/mL at 10 mL/kg; for Body temperature increase ΔTb: 1 mg/mL in 0.5% methylcellulose at 10 mL/kg, difference from vehicle group average
Procedure: Test Animals: Selection of rats (Crl/SD rats, 7 weeks, male) for this study was based on rectal body temperature measured during the morning of the day of dosing. In addition, animals selected for this study were acclimated to both the rectal measurement procedure and to being handled and dosed to minimize spontaneous, stress-induced, increases in body temperature. The study was conducted in the animal care laboratories where the room temperature and humidity were kept. The rats were free to move and food and water during the study. Each rat was numbered with color line on the tail, housed in each cage and permitted the normal range of movement. Immediately before each body temperature was measured, they transferred to a single cage at each measurement. To reduce stress which affected the body temperature, the rats were covered with towels at the measurement. The thermistor probe was then carefully inserted into the rectum of each rat and left in place until the value on the digital display had stabilized.
Assays: On the day before dosing, rectal body temperatures were measured at 9:00, 10:00, 11:00, 12:30, 13:30, 14:30 and 15:30 to familiarize the animals with the measurement procedure prior to administration of the test or control treatments. The rats were also dosed by oral gavage without vehicle at 12:30 to acclimate and familiarized the animals with the handling and dosing procedure.
On the day of dosing, only rats whose rectal body temperatures were within the range of 37.0° C. to 37.7° C. were selected for this study. Rectal body temperatures were measured at 9:00, 10:00 and 11:00. Rats whose rectal body temperatures were over 37.9° C. at 10:00, and were outside the range of 37.0° C. to 37.7° C. at 11:00 were excluded from the study. The selected rats were divided to several groups based on their rectal body temperatures at 11:00. Rectal body temperatures of the selected rats were measured again at 12:30, and any rats whose rectal body temperature was 38.0° C. or greater were excluded from the study.
Following the group assignment, test compounds or vehicle was administrated to the rats. Each test compound was dissolved in 0.5% methylcellurose and the final concentration of the compound was adjusted to 1 mg/mL. Test compound was orally administrated in a volume 10 mL/kg once. 10 mL/kg of vehicle (0.5% methylcellurose) was administered to the vehicle group. The rectal body temperatures were measured 0.5, 1 and 2 hrs after the administration. The study was conducted in the animal care laboratories where the room temperature and humidity were kept.
Body temperature increase (ΔTb) was calculated from the difference from an average of the vehicle group at each time point.

[3] = biological target: T1, human recombinant TRPV1; experiment: TRPV1 Capsaicin-Based Assay (Protocol 2, TRPV1/CHO cells, Fluo-4, FLIPR); type: cell-based; conditions: TRPV1/CHO cells, capsaicin 100 nM final; read-out: IC50 value by the Capsaicin-Based Assay
Procedure: For Protocol 2, a Chinese Hamster Ovary cell line (CHO) that has been engineered to constitutively express human recombinant TRPV1 was used (TRPV1/CHO cells). The TRPV1/CHO cell line was generated as described below.
One day prior to assay, TRPV1/CHO cells were seeded in 96-well clear-bottom black plates (20,000 cells/well) in growth media. On the day of the experiment, the cells were washed with 0.2 mL 1× Hank's Balanced Salt Solution (Life Technologies) containing 1.6 mM CaCl2 and 20 mM HEPES, pH 7.4 (“wash buffer”). Subsequently, the cells were loaded by incubation in 0.1 mL of wash buffer containing Fluo-4 at 3 μM final concentration. After 1 hour, the cells were washed twice with 0.2 mL wash buffer and resuspended in 0.1 mL wash buffer. The plates were then transferred to a Fluorescence Imaging Plate Reader (Molecular Devices). Fluorescence intensity was monitored for 15 seconds to establish a baseline. Subsequently, test compounds diluted in assay buffer (1× Hank's Balanced Salt Solution containing 1 mM CaCl2 and 20 mM HEPES, pH 7.4) containing 1% DMSO were added to the cell plate and fluorescence was monitored for 2 minutes. […] Human TRPV1 was then activated by the addition of 50 μL capsaicin (100 nM final concentration) and plates incubated for an additional 3 min. Data were collected over the entire time course and analyzed using Excel and the curve-fitting formula GraphPad Prism.

T1 sequence (Q8NER1 whole entry): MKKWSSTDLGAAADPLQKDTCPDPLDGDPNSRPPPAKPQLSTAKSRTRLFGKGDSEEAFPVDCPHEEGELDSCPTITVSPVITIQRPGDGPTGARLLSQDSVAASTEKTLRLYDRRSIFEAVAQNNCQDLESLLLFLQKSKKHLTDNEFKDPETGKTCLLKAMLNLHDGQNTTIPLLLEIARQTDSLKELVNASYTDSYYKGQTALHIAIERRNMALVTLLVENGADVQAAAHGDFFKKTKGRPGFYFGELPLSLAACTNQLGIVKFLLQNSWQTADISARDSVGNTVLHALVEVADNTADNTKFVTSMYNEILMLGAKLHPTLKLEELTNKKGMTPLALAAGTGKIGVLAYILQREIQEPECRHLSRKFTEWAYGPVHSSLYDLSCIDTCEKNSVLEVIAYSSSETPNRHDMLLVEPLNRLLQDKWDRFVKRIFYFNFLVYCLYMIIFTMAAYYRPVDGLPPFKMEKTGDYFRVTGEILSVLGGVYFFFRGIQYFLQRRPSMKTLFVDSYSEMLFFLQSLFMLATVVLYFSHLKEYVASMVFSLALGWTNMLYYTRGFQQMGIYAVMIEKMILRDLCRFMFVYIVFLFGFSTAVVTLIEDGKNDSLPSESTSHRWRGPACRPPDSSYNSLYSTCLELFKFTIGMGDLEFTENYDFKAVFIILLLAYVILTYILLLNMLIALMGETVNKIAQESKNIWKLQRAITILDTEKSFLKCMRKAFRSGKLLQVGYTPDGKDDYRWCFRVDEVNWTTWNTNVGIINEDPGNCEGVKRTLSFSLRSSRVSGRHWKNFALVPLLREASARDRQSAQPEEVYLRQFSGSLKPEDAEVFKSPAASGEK

IC50 [1] [nM]	Body temperature increase [2]	IC50 [3] [nM]	Body temperature increase ΔTb [2] [°C]	SMILES
≤ 50	less than 0.5 °C	≤ 50		Cc1ccc2nc(NC(=O)N3CCN(c4ncc(C[C@@H](O)CO)cc4Cl)CC3)sc2c1 [ADU]
≤ 50			0.24	Cc1cc2nc(NC(=O)N3CCN(c4ncc(C[C@@H](O)CO)cc4F)CC3)sc2cc1C [ACZ, (R)-4-(5-(2,3-dihydroxypropyl)-3-fluoropyridin-2-yl)-N-(5,6-dimethylbenzo[d]thiazol-2-yl)piperazine-1-carboxamide]
≤ 50	less than 0.5 °C			O=C(Nc1nc2ccccc2s1)N1CCN(c2ncc(C[C@@H](O)CO)cc2Cl)CC1 [ADV]
≤ 50	less than 0.5 °C	≤ 50		O=C(Nc1nc2ccc(F)cc2s1)N1CCN(c2ncc(C[C@H](O)CO)cc2Cl)CC1 [ADR]
≤ 50	less than 0.5 °C	≤ 50		O=C(Nc1nc2ccc(Cl)cc2s1)N1CCN(c2ncc(C[C@H](O)CO)cc2F)CC1 [ADE, (S)-N-(6-chlorobenzo[d]thiazol-2-yl)-4-(5-(2,3-dihydroxypropyl)-3-fluoropyridin-2-yl)piperazine-1-carboxamide]
≤ 50	less than 0.5 °C	≤ 50		O=C(Nc1nc2ccc(Cl)cc2s1)N1CCN(c2ncc(C[C@@H](O)CO)cc2Cl)CC1 [ADT]
	less than 0.5 °C	≤ 50		C[C@H]1CN(c2ncc(C[C@H](O)CO)cc2Cl)CCN1C(=O)Nc1nc2ccc(Cl)cc2s1 [AEG]
≤ 50	less than 0.5 °C			O=C(Nc1nc2ccc(F)cc2s1)N1CCN(c2ncc(C[C@H](O)CO)cc2F)CC1 [ADD, (S)-4-(5-(2,3-dihydroxypropyl)-3-fluoropyridin-2-yl)-N-(6-fluorobenzo[d]-thiazol-2-yl)piperazine-1-carboxamide]
≤ 50	less than 0.5 °C	≤ 50		Cc1ccc2nc(NC(=O)N3CCN(c4ncc(C[C@@H](O)CO)cc4F)CC3)sc2c1 [ACY, (R)-4-(5-(2,3-dihydroxypropyl)-3-fluoropyridin-2-yl)-N-(6-methylbenzo[d]-thiazol-2-yl)piperazine-1-carboxamide]
≤ 50	less than 0.5 °C	≤ 50		O=C(Nc1nc2ccc(Cl)cc2s1)N1CCN(c2ncc(C[C@H](O)CO)cc2Cl)CC1 [ADW]
	less than 0.5 °C	≤ 50		Cc1ccc2nc(NC(=O)N3CCN(c4ncc(C[C@H](O)CO)cc4Cl)CC3)sc2c1 [ADX]

Continued, molecule first:

SMILES	IC50 [1] [nM]	Body temperature increase [2]	IC50 [3] [nM]	Body temperature increase ΔTb [2] [°C]
O=C(Nc1nc2ccc(Cl)cc2s1)N1CCN(c2ncc(C[C@@H](O)CO)cc2F)CC1 [ACX, (R)-N-(6-chlorobenzo[d]thiazol-2-yl)-4-(5-(2,3-dihydroxypropyl)-3-fluoropyridin-2-yl)piperazine-1-carboxamide]	≤ 50	less than 0.5 °C	≤ 50	
Cc1cc(NC(=O)N2CC=C(c3ncc(C[C@H](O)CO)cc3F)CC2)ccc1OC(F)(F)F [ABZ, (S)-5-(2,3-dihydroxypropyl)-3-fluoro-N-(3-methyl-4-(trifluoromethoxy)-phenyl)-5′,6′-dihydro-[2,4′-bipyridine]-1′(2′H)-carboxamide]	≤ 50			0.03
Cc1cc(NC(=O)N2CCC(F)(c3ncc(C[C@@H](O)CO)cc3F)CC2)ccc1OC(F)(F)F [ACP, (R)-4-(5-(2,3-dihydroxypropyl)-3-fluoropyridin-2-yl)-4-fluoro-N-(3-methyl-4-(trifluoromethoxy)phenyl)piperidine-1-carboxamide]	≤ 50		≤ 50	0.16
O=C(Nc1nc2ccc(F)cc2s1)N1CCN(c2ncc(C[C@@H](O)CO)cc2F)CC1 [ACW, (R)-4-(5-(2,3-dihydroxypropyl)-3-fluoropyridin-2-yl)-N-(6-fluorobenzo[d]-thiazol-2-yl)piperazine-1-carboxamide]	≤ 50	less than 0.5 °C	≤ 50	
O=C(Nc1ccc(C(F)(F)F)c(Cl)c1)N1CC=C(c2ncc(C[C@@H](O)CO)cc2Cl)CC1 [AAK, (R)-N-(3-Chloro-4-(trifluoromethyl)phenyl)-4-(3-chloro-5-(2,3-dihydroxypropyl)pyridin-2-yl)-5,6-dihydropyridine-1(2H)-carboxamide]	≤ 50	less than 0.5 °C		
Cc1cc(NC(=O)N2CC=C(c3ncc(C[C@@H](O)CO)cc3F)CC2)ccc1C(F)(F)F [ACA, (R)-5-(2,3-dihydroxypropyl)-3-fluoro-N-(3-methyl-4-(trifluoro-methyl)phenyl)-5′,6′-dihydro-[2,4′-bipyridine]-1′(2′H)-carboxamide]	≤ 50	less than 0.5 °C		
O=C(Nc1nc2ccc(F)cc2s1)N1CCN(c2ncc(C[C@@H](O)CO)cc2Cl)CC1 [ACV, (R)-4-(3-chloro-5-(2,3-dihydroxypropyl)pyridin-2-yl)-N-(6-fluorobenzo[d]thiazol-2-yl)piperazine-1-carboxamide]	≤ 50	less than 0.5 °C	≤ 50	
Cc1cc(NC(=O)N2CC=C(c3ncc(C[C@H](O)CO)cc3F)CC2)ccc1C(F)(F)F [ABY, (S)-5-(2,3-dihydroxypropyl)-3-fluoro-N-(3-methyl-4-(trifluoromethyl)phenyl)-5′,6′-dihydro-[2,4′-bipyridine]-1′(2′H)-carboxamide]	≤ 50	less than 0.5 °C	≤ 50	
Cc1cc(NC(=O)N2CC=C(c3ncc(C[C@@H](O)CO)cc3Cl)CC2)ccc1C(F)(F)F [AAW, (R)-4-(3-Chloro-5-(2,3-dihydroxypropyl)pyridin-2-yl)-N-(3-methyl-4-(trifluoromethyl)phenyl)-5,6-dihydropyridine-1(2H)-carboxamide]	≤ 50	less than 0.5 °C		
COc1cc(NC(=O)N2CC=C(c3ncc(C[C@@H](O)CO)cc3Cl)CC2)ccc1C(F)(F)F [AAM, (R)-4-(3-Chloro-5-(2,3-dihydroxypropyl)pyridin-2-yl)-N-(3-methoxy-4-(trifluoromethyl)phenyl)-5,6-dihydropyridine-1(2H)-carboxamide]	≤ 50	less than 0.5 °C		
